Measured values taken from ChEMBL document CHEMBL1177820, “Diazinones as P2 replacements for pyrazole-based cathepsin S inhibitors” (Bioorg Med Chem Lett, 2010).

Key:
[1] = Apparent permeability from apical to basolateral side in […] TC7 cells; format: ADME, cell-based; settings: Caco-2
[2] = Apparent permeability from basolateral to apical side in […] TC7 cells; format: ADME, cell-based; settings: Caco-2

Row | Papp A→B [1] [×10⁻⁶ cm/s] | Papp B→A [2] [×10⁻⁶ cm/s] | Compound
1 | 1.3 | 1.5 | Cn1c(=O)n(C2CCN(CCCn3nccc(-c4ccc(Cl)c(CNC(=O)c5ccc(F)cc5)c4)c3=O)CC2)c2cc(Cl)ccc21
2 | 2.5 | 2.9 | Cn1c(=O)n(C2CCN(CCCn3cncc(-c4ccc(Cl)c(CNC(=O)c5ccc(F)cc5)c4)c3=O)CC2)c2cc(Cl)ccc21
3 | 0.6 | 3.7 | Cn1c(=O)n(C2CCN(CCCn3ccnc(-c4ccc(Cl)c(CNC(=O)c5ccc(F)cc5)c4)c3=O)CC2)c2cc(Cl)ccc21
